Among the data in patent publication US11498903B2 (BRISTOL-MYERS SQUIBB COMPANY, priority 2017, dated 2022) are EC50 values, retold here.

As a reminder, the EC50 is the concentration giving half of the maximal effect.

In the assay the target is T1, human APJ receptor (Homo sapiens, UniProt P35414).
T1 construct: expressed in transfected cells
T1 sequence (P35414 1-380): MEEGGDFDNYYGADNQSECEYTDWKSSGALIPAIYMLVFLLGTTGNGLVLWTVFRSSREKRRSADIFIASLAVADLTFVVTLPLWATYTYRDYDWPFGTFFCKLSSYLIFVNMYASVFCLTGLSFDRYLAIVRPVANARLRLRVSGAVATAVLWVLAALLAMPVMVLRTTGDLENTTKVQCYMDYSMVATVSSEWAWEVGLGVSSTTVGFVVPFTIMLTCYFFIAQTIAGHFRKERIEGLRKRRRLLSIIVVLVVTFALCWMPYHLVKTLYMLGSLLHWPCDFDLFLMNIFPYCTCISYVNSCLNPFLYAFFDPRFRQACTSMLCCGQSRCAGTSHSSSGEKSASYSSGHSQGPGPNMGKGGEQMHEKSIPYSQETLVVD
In words: Intracellular cAMP accumulation assay (APJ hcAMP, HTRF). Format: cell-based. The method, then: Intracellular cAMP Accumulation Assay
HEK293 cells stably expressing human APJ receptor were used to assess the activity of compounds. Cultured cells were detached and resuspended in the cAMP Homogeneous Time-Resolved Fluorescence (HTRF) assay buffer (Cisbio cat; #62AM4PEJ). The assay was performed in 384-well assay plates (Perkin-Elmer; cat #6008289) according to assay protocol provided by the manufacturer. Serial dilutions of a compound together with assay buffer containing […] IBMX and 2 μM forskolin were added to each well containing 5,000 cells and incubated for 30 minutes at room temperature. Subsequently, cAMP D2 reagent was added in the lysis buffer followed by the EuK antibody (Cisbio; cat #62AM4PEJ) and incubated for 60 min. The fluorescence emission ratio was measured using fluorometer. The intracellular cAMP concentrations (compound-stimulated inhibition of forskolin-mediated cAMP production) were calculated by extrapolation from a standard curve using known cAMP concentrations. The EC50 values were obtained by fitting the data to a sigmoidal concentration-response curve with variable slope. The maximal achievable inhibition of forskolin-induced cAMP levels (Ymax) for each compound was expressed as relative percentage of inhibition attained using pyroglutamated apelin-13 ((Pyrl)apelin-13) peptide, which was set to 100%.
The exemplified Examples disclosed below were tested in the APJ in vitro assays described above and were found having human APJ cyclic AMP (hcAMP) activity. Table 1 lists hcAMP EC50 values measured for the following examples. Ranges are as followε: A=0.0-10 nM; B=10.01-100 nM; C=101-500 nM.

Where [1] appears, read: Table 1, HEK293 cells stably expressing human APJ receptor, inhibition of forskolin-mediated cAMP production, read-out: APJ hcAMP EC50.
Where [2] appears, read: Table 2, HEK293 cells stably expressing human APJ receptor, read-out: APJ cAMP Human EC50.
The mark [3] stands for this setting: human APJ, cAMP, potency range class, read-out: APJ cAMP Human EC50.
[4] abbreviates: Table 3, HEK293 cells stably expressing human APJ receptor, read-out: APJ cAMP Human EC50.

Where two headings read alike, the source gives them in different places.

`CCC[C@@H](NC(=O)c1ccc(-c2cc(C)ccc2-c2nc3cc(C(C)(C)C)ccc3[nH]2)c(C(=O)O)c1)c1ccccc1` [Example 38, 2′-(5-tert-butyl-1H-1,3-benzodiazol-2-yl)-5′-methyl-4-{[(1R)-1-phenylbutyl]carbamoyl}-[1,1-biphenyl]-2-carboxylic acid]: the EC50 runs as follows: under setting [1], below 10 nM; under setting [2], below 10 nM. For `COC[C@@H](NC(=O)c1ccc(-c2cc(Cl)ccc2-c2nc3cc(Cl)ccc3[nH]2)c(C(=O)O)c1)c1ccccc1` [Example 79, 5′-chloro-2′-(5-chloro-1H-1,3-benzodiazol-2-yl)-4-{[(1S)-2-methoxy-1-phenylethyl]carbamoyl}-[1,1′-biphenyl]-2-carboxylic acid], the EC50 is, setting by setting: under setting [1], below 10 nM; under setting [2], below 10 nM. With `CCC[C@@H](NC(=O)c1ccc(-c2cc(Cl)ccc2-c2nc3ncccc3[nH]2)c(C(=O)O)c1)c1ccccc1` [Example 31, 5′-chloro-2′-{1H-imidazo[4,5-b]pyridin-2-yl}-4-{[(1R)-1-phenylbutyl]carbamoyl}-[1,1′-biphenyl]-2-carboxylic acid], the EC50 under setting [1] fell in the range of 10 to 100 nM and the EC50 under setting [2] lay within 10 to 100 nM. Regarding `CCCC(NC(=O)c1ccc(-c2c(Cl)cccc2-c2nc3ccccc3[nH]2)c(C(=O)O)c1)c1cccc(Cl)c1` [Example 167, (S)-2′-(1H-1,3-benzodiazol-2-yl)-6′-chloro-4-{[1-(3-chlorophenyl)butyl]carbamoyl}-[1,1′-biphenyl]-2-carboxylic acid], the EC50 is, setting by setting: under setting [1], below 10 nM; under setting [3], below 10 nM. `COc1cc2[nH]c(-c3cccc(Cl)c3-c3ccc(C(=O)NCC(c4ccccc4)c4ccccc4)cc3C(=O)O)nc2cc1F` [Example 117, (S)-2′-chloro-4-[(2,2-diphenylethyl)carbamoyl]-6′-(5-fluoro-6-methoxy-1H-1,3-2-benzodiazol-2-yl)-[1,1′-biphenyl]-2-carboxylic acid]: the EC50 by setting is: under setting [1], 10 to 100 nM; under setting [4], 10 to 100 nM. With `CCCC(NC(=O)c1ccc(-c2c(Cl)cccc2-c2nc3ccccc3[nH]2)c(C(=O)O)c1)C1CCCC1` (single isomer, unassigned) [Example 183], the EC50 is, setting by setting: under setting [1], below 10 nM; under setting [3], below 10 nM. Regarding `CCC[C@@H](NC(=O)c1ccc(-c2c(C)cccc2-c2nc3ccccc3[nH]2)c(C(=O)O)c1)c1ccccc1` [Example 139, 2′-(1H-1,3-benzodiazol-2-yl)-6′-methyl-4-{[(1R)-1-phenylbutyl]carbamoyl}-[1,1′-biphenyl]-2-carboxylic acid], the EC50 under setting [4] is below 10 nM.

In the case of `CCC[C@@H](NC(=O)c1ccc(-c2ccccc2-c2nc3cc(C(C)(C)C)ccc3[nH]2)c(C(=O)O)c1)c1ccccc1` [Example 62, 2′-(5-tert-butyl-1H-1,3-benzodiazol-2-yl)-4-{[(1R)-1-phenylbutyl]carbamoyl}-[1,1′-biphenyl]-2-carboxylic acid], the EC50 runs as follows: under setting [1], 10 to 100 nM; under setting [2], below 10 nM. For the molecule `CCC[C@H](NC(=O)c1ccc(-c2c(Cl)cccc2-c2nc3ccccc3[nH]2)c(C(=O)O)c1)C1CCCCC1` (single isomer, unassigned) [Example 177], the EC50 runs as follows: under setting [1], below 10 nM; under setting [3], below 10 nM.

For `CCC[C@H](NC(=O)c1ccc(-c2c(Cl)cccc2-c2nc3cc(OC)c(F)cc3[nH]2)c(C(=O)O)c1)c1ccccc1C(F)(F)F` (single isomer, unassigned) [Example 196], the EC50 by setting is: under setting [1], below 10 nM; under setting [3], below 10 nM. `CCC[C@@H](NC(=O)c1ccc(-c2c(Cl)cccc2-c2nc3cc(O)c(F)cc3[nH]2)c(C(=O)O)c1)c1ccccc1` (atropisomer, axis not shown) [Example 87, (S)-2′-chloro-6′-(6-fluoro-5-hydroxy-1H-1,3-benzodiazol-2-yl)-4-{[(1R)-1-phenylbutyl]carbamoyl}-[1,1′-biphenyl]-2-carboxylic acid]: the EC50 under setting [1] is below 10 nM and the EC50 under setting [4] was below 10 nM. Take `CCC[C@@H](NC(=O)c1ccc(-c2cc(Cl)ccc2-c2nc3cc(C(C)C)ccc3[nH]2)c(C(=O)O)c1)c1ccccc1` [Example 48, 5′-chloro-4-{[(1R)-1-phenylbutyl]carbamoyl}-2′-[5-(propan-2-yl)-1H-1,3-benzodiazol-2-yl]-[1,1′-biphenyl]-2-carboxylic acid]: the EC50 was below 10 nM under setting [1] and below 10 nM under setting [2].

For `CCC[C@@H](NC(=O)c1ccc(-c2cc(Cl)ccc2-c2nc3cc(OC)ccc3[nH]2)c(-c2nc(=O)o[nH]2)c1)c1ccccc1` [Example 8, (R)-5′-chloro-2′-(5-methoxy-1H-benzo[d]imidazol-2-yl)-2-(5-oxo-2,5-dihydro-1,2,4-oxadiazol-3-yl)-N-(1-phenylbutyl)-[1,1′-biphenyl]-4-carboxamide], the EC50 was 10 to 100 nM under setting [1] and 10 to 100 nM under setting [2]. `CCC[C@@H](NC(=O)c1ccc(-c2c(Cl)cccc2-c2nc3cc(OC)c(F)cc3[nH]2)c(C(=O)NOC)c1)c1ccccc1` [Example 127, 2′-chloro-6′-(6-fluoro-5-methoxy-1H-1,3-benzodiazol-2-yl)-N2-methoxy-N4-[(1R)-1-phenylbutyl]-[1,1′-biphenyl]-2,4-dicarboxamide]: under setting [4], the EC50 is below 10 nM. In the case of `CCC[C@@H](NC(=O)c1ccc(-c2c(Cl)cccc2-c2nc3cc(Cl)c(F)cc3[nH]2)c(C(=O)O)c1)c1ccccc1` (atropisomer, axis not shown) [Example 108, (S)-2′-chloro-6′-(5-chloro-6-fluoro-1H-1,3-benzodiazol-2-yl)-4-{[(1R)-1-phenylbutyl]carbamoyl}-[1,1′-biphenyl]-2-carboxylic acid], the EC50 under setting [4] is below 10 nM. As for `CCCC(NC(=O)c1ccc(-c2c(Cl)cccc2-c2nc3ccccc3[nH]2)c(C(=O)O)c1)c1ccc(Cl)cc1OC` [Example 179, (S)-2′-(1H-1,3-benzodiazol-2-yl)-6′-chloro-4-{[1-(4-chloro-2-methoxyphenyl)butyl]carbamoyl}-[1,1′-biphenyl]-2-carboxylic acid], the EC50 under setting [1] was below 10 nM and the EC50 under setting [3] is below 10 nM. For the molecule `COC(=O)CCNC(=O)c1ccc(-c2c(Cl)cccc2-c2nc3cc(F)c(OC)cc3[nH]2)c(C(=O)O)c1` [Example 116, (S)-2′-chloro-6′-(5-fluoro-6-methoxy-1H-1,3-benzodiazol-2-yl)-4-[(3-methoxy-3-oxopropyl)carbamoyl]-[1,1′-biphenyl]-2-carboxylic acid], under setting [4], the EC50 is 10 to 100 nM. For `CCC[C@H](NC(=O)c1ccc(-c2c(Cl)cccc2-c2nc3ccccc3[nH]2)c(C(=O)O)c1)c1cccnc1` [Example 193, (S)-2′-(1H-1,3-benzodiazol-2-yl)-6′-chloro-4-{[1-(pyridin-3-yl)butyl]carbamoyl}-[1,1′-biphenyl]-2-carboxylic acid], the EC50 under setting [1] lay in the range of 10 to 100 nM. As for `CCC[C@@H](NC(=O)c1ccc(-c2c(Cl)cccc2-c2ncc(-c3ccc(OC)cc3)[nH]2)c(C(=O)O)c1)c1ccccc1` (atropisomer, axis not shown) [Example 105, (S)-2′-chloro-6′-[5-(4-methoxyphenyl)-1H-imidazol-2-yl]-4-{[(1R)-1-phenylbutyl]carbamoyl}-[1,1′-biphenyl]-2-carboxylic acid], the EC50 is below 10 nM under setting [1] and below 10 nM under setting [4]. As to `CCCC(NC(=O)c1ccc(-c2c(Cl)cccc2-c2nc3ccccc3[nH]2)c(C(=O)O)c1)c1ccccn1` (single isomer, unassigned) [Example 175], the EC50 is below 10 nM under setting [1] and below 10 nM under setting [3]. Consider `CCC[C@@H](NC(=O)c1ccc(-c2cc(Cl)ccc2-c2nc3cc(C4CC4)ccc3[nH]2)c(C(=O)O)c1)c1ccccc1` [Example 15, 5′-chloro-2′-(5-cyclopropyl-1H-1,3-benzodiazol-2-yl)-4-{[(1R)-1-phenylbutyl]carbamoyl}-[1,1′-biphenyl]-2-carboxylic acid], for which the EC50 is, setting by setting: under setting [1], below 10 nM; under setting [2], below 10 nM. Regarding `CCC[C@H](NC(=O)c1ccc(-c2c(Cl)cccc2-c2nc3ccccc3[nH]2)c(C(=O)O)c1)c1ccccc1F` [Example 174, (S)-2′-(1H-1,3-benzodiazol-2-yl)-6′-chloro-4-{[1-(2-fluorophenyl)butyl]carbamoyl}-[1,1-biphenyl]-2-carboxylic acid], the EC50 is below 10 nM under setting [1] and below 10 nM under setting [3]. Turning to `CCCC(NC(=O)c1ccc(-c2c(Cl)cccc2-c2nc3cc(Cl)c(F)cc3[nH]2)c(C(=O)O)c1)C1CCCCC1` (single isomer, unassigned) [Example 161], the EC50 was below 10 nM under setting [1] and below 10 nM under setting [3].
